Results on 8 compounds are retold here after PubChem BioAssay (NCI).

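Following 48 hours of exposure in 96-well plates, responses at five concentrations were used to interpolate endpoints linearly. TGI marks complete inhibition of growth.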

What all share (assay): NCI anticancer screen, dose series, 48 h
Assay [1] relates to UO-31 renal.
The test system of assay [2] is UACC-62 melanoma.
Assay [3] has as its system OVCAR-3 ovarian.
Assay [4] relates to MOLT-4 leukemia.
Assay [5] has as its system ACHN renal.
The test system of assay [6] is OVCAR-4 ovarian.
Assay [7] deals with NCI-H23 lung.
The test system of assay [8] is HT29 colon.
The subject of assay [9] is SW-620 colon.
In assay [10] the test system is KM20L2 colon.
Assay [11] deals with NCI-H522 lung.
Assay [12] concerns SK-OV-3 ovarian.
Assay [13] relates to HOP-62 NSCLC.
Assay [14] deals with M19-MEL melanoma.
The test system of assay [15] is SF-539 CNS.
In assay [16] the test system is RPMI-8226 leukemia.
For assay [17], the system named is NCI-H226 lung.
The test system of assay [18] is NCI/ADR-RES ovarian.
Assay [19] deals with PC-3 prostate.
Assay [20] deals with MDA-N.

Turning to `CCC1(N=[N+]=[N-])C(=O)c2ccccc2N(c2ccccc2)C1=O` (stereo not given), the TGI in [1], in assay [2], in [3], in [4], in [5] and in [6] was > 100 µM in each case. In addition, the TGI in [7], in [8], in assay [9], in assay [10], in assay [11] and in assay [12] was > 100 µM throughout. Besides, the TGI in assay [13], in assay [14] and in assay [15] was > 100 µM throughout.

Take `Brc1ccc2c(c1)C1C(CO2)C(c2ccccc2)=NN1c1ccccc1` (stereo not given): the TGI in assay [1], in assay [3], in [4], in assay [5], in assay [7] and in assay [8] was > 100 µM throughout. Besides, the TGI in assay [16], in assay [9], in assay [10], in [12], in assay [13] and in assay [14] was > 100 µM throughout.

On to `COC(=O)NC(=O)c1cn(CCCOC(=O)CCCCCCCCC(=O)OCCCn2cc(C(=O)NC(=O)OC)c(=O)[nH]c2=O)c(=O)[nH]c1=O`, for which the TGI in assay [1], in assay [2], in assay [3], in [4], in assay [5] and in assay [6] was > 100 µM in each case. Further, the TGI in assay [7], in [8], in assay [16], in assay [9], in assay [10] and in assay [17] was > 100 µM in each case. The TGI in assay [13] is 78.5 µM; in assay [14], > 100 µM; in assay [15] it was > 100 µM.

In the case of `COC(=O)c1ccccc1NC(=O)C(=O)CC(=O)CC(c1ccccc1)c1c(O)c2ccccc2oc1=O` (stereo not given), the TGI in [1], in assay [2], in assay [3], in [4], in assay [5] and in assay [6] was > 100 µM throughout. Also, the TGI in assay [7], in assay [8], in assay [16], in assay [9], in assay [10] and in assay [11] was > 100 µM each time. The TGI in [12], in assay [13], in assay [14] and in assay [15] was > 100 µM throughout.

Regarding `CC(C)(Oc1ccc2c(=O)cc(-c3ccccc3)oc2c1)C(=O)Nc1c(Cl)cccc1Cl`, the TGI in assay [1], in assay [2], in assay [3], in assay [4], in assay [7] and in assay [8] was > 100 µM each time. Besides, the TGI in [16], in assay [9], in assay [10], in assay [11], in assay [12] and in assay [13] was > 100 µM each time. Further, the TGI in assay [14] and in [15] was > 100 µM each time.

As for `CC1C=C[C@H](Sc2ccccc2)CC[C@@]1(C)O` (stereo not given in full), the TGI in [1], in assay [2], in [4], in [5], in assay [7] and in assay [8] was > 100 µM throughout. For the same compound, the TGI in assay [16], in assay [9], in assay [10], in assay [17], in [12] and in [13] was > 100 µM throughout. In addition, the TGI in [14] and in assay [15] was > 100 µM throughout.

On to `COC(=O)C1N=CSCC1(C)O` (stereo not given), for which the TGI in assay [1], in [2], in assay [3], in assay [4], in assay [5] and in [6] was > 100 µM throughout. The TGI in [7], in [8], in [16], in [9], in assay [10] and in assay [17] was > 100 µM in each case. Besides, the TGI in [12], in assay [13], in assay [14] and in assay [15] was > 100 µM in each case.

Regarding `O=S(=O)(NC1OCCCC1I)c1ccccc1` (stereo not given), the TGI in assay [1], in assay [2], in assay [3], in assay [4], in [5] and in assay [6] was > 100 µM throughout. Moreover, the TGI in [7], in [18], in assay [19], in assay [8], in assay [16] and in assay [9] was > 100 µM in each case. The TGI in [11], in assay [17], in [12], in assay [13], in assay [20] and in assay [15] was > 100 µM throughout.
